# Laboratory results reported in BindingDB's records for doi:10.1016/s0014-5793(97)00196-8 (Merck Research Laboratories, 1997).
# Non-standard residues stand in square brackets, D forms with d. Residues, ends and D or L forms follow the SMILES beside them.
# Target: T1, Galanin receptor type 2 (Rattus norvegicus, UniProt O08726)
# T1 sequence (O08726 whole entry): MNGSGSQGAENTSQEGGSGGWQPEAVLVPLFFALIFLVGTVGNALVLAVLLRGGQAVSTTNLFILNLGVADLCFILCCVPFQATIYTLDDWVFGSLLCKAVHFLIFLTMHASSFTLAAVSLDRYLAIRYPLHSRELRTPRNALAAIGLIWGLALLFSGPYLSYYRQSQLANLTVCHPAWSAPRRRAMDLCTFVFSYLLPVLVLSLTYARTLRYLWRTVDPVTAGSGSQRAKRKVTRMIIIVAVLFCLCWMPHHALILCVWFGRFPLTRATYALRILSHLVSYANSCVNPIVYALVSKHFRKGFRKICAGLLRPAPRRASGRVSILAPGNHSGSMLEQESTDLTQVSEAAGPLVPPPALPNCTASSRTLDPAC
row,Ki [µM],Molecule
1,1,"CC[C@H](C)[C@H](NC(=O)[C@H](C)NC(=O)[C@H](Cc1c[nH]cn1)NC(=O)[C@@H]1CCCN1C(=O)CNC(=O)[C@H](CC(C)C)NC(=O)[C@H](CC(C)C)NC(=O)[C@H](Cc1ccc(O)cc1)NC(=O)CNC(=O)[C@H](C)NC(=O)[C@H](CO)NC(=O)[C@H](CC(N)=O)NC(=O)[C@H](CC(C)C)NC(=O)[C@@H](N)[C@@H](C)O)C(=O)N[C@@H](CC(=O)O)C(=O)N[C@@H](CC(N)=O)C(=O)N[C@@H](Cc1c[nH]cn1)C(=O)N[C@@H](CCCNC(=N)N)C(=O)N[C@@H](CO)C(=O)N[C@@H](Cc1ccccc1)C(=O)N[C@@H](CO)C(=O)N[C@@H](CC(=O)O)C(=O)N[C@@H](CCCCN)C(=O)N[C@@H](Cc1c[nH]cn1)C(=O)NCC(=O)N[C@@H](CC(C)C)C(=O)N[C@H](C(N)=O)[C@@H](C)O [Galanin (3-29), rat]"
2,0.023,CC(C)C[C@H](NC(=O)[C@H](CC(C)C)NC(=O)[C@@H](Cc1c[nH]c2ccccc12)NC(=O)[C@H](Cc1ccccc1)NC(=O)[C@@H](Cc1c[nH]c2ccccc12)NC(=O)[C@H](CCC(N)=O)NC(=O)[C@H](CCC(N)=O)NC(=O)[C@@H]1CCCN1C(=O)[C@H](CCCCN)NC(=O)[C@@H]1CCCN1C(=O)[C@@H](CCCNC(=N)N)NC(=O)[C@@H]1CCCN1C(=O)CNC(=O)[C@H](CC(C)C)NC(=O)[C@H](CC(C)C)NC(=O)[C@H](Cc1ccc(O)cc1)NC(=O)CNC(=O)[C@H](C)NC(=O)[C@H](CO)NC(=O)[C@H](CC(N)=O)NC(=O)[C@H](CC(C)C)NC(=O)[C@@H](NC(=O)[C@H](Cc1c[nH]c2ccccc12)NC(=O)CN)[C@@H](C)O)C(N)=O [Gal(1-13)-Std I] (H-GWTLNSAGYLLGP[dR]PKPQQ[dW]F[dW]LL-NH2)
3,0.0019,H-GWTLNSAGYLLGPPPALALA-NH2 [M40]
4,0.0029,CC[C@H](C)[C@H](NC(=O)[C@H](C)NC(=O)[C@H](Cc1c[nH]cn1)NC(=O)[C@@H]1CCCN1C(=O)CNC(=O)[C@H](CC(C)C)NC(=O)[C@H](CC(C)C)NC(=O)[C@H](Cc1ccc(O)cc1)NC(=O)CNC(=O)[C@H](C)NC(=O)[C@H](CO)NC(=O)[C@H](CC(N)=O)NC(=O)[C@H](CC(C)C)NC(=O)[C@@H](NC(=O)[C@@H](N)Cc1c[nH]c2ccccc12)[C@@H](C)O)C(=O)N[C@@H](CC(=O)O)C(=O)N[C@@H](CC(N)=O)C(=O)N[C@@H](Cc1c[nH]cn1)C(=O)N[C@@H](CCCNC(=N)N)C(=O)N[C@@H](CO)C(=O)N[C@@H](Cc1ccccc1)C(=O)N[C@@H](CO)C(=O)N[C@@H](CC(=O)O)C(=O)N[C@@H](CCCCN)C(=O)N[C@@H](Cc1c[nH]cn1)C(=O)NCC(=O)N[C@@H](CC(C)C)C(=O)N[C@H](C(N)=O)[C@@H](C)O [Galanin Porcine 2-29]
